{"source": "patent US20080020413A1", "about": "“CRYSTALLINE VISFATIN AND METHODS THEREFOR” (Columbia University, priority 2006, published 2008)", "key": {"normal cells": {"test_system": "normal cells", "details": "cited from earlier work"}, "tumor cells": {"test_system": "tumor cells", "details": "cited from earlier work"}, "renal cell carcinoma": {"test_system": "renal cell carcinoma", "details": "mouse renal cell carcinoma model; cited from earlier work"}, "NAPRTases": {"test_system": "NAPRTases", "details": "cited from earlier work"}, "NMPRTase": {"biological_target": "T1, NMPRTase (Homo sapiens, UniProt P43490)", "T1 construct": "Full-length human and murine NMPRTase (residues 1-491) was sub-cloned into the pET26b vector; made in house; host or cells: E. coli (pET26b vector)", "T1 sequence (P43490 whole entry, the tested form may be a part)": "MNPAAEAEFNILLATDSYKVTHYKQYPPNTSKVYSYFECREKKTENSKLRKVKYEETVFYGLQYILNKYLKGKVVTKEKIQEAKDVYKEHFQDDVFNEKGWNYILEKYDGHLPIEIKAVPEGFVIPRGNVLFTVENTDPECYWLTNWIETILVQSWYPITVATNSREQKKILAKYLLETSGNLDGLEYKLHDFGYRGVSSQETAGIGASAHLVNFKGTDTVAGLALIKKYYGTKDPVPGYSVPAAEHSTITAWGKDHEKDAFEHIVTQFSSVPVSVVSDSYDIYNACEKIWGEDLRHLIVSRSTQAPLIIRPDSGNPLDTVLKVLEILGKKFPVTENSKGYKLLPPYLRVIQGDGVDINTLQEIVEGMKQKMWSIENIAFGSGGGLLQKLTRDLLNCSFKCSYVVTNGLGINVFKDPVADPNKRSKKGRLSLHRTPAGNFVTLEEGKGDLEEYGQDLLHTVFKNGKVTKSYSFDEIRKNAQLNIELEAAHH", "assay": "NMPRTase coupled-enzyme spectrometric assay", "format": "biochemical", "details": "FIG. 5; Vmax=kcat([E]-[I])", "procedure": "The catalytic activity of NMPRTase was determined using a coupled-enzyme spectrometric assay, following a published protocol (Revollo et al., 2004). Briefly, the NMN product of NMPRTase is converted to NAD^+ with the enzyme NMN/NAMN adenylyltransferase (NMNAT), and NAD^+ is then reduced to NADH by alcohol dehydrogenase (Sigma) using ethanol as the substrate. By monitoring the appearance of NADH at 340 nm, the activity of NMPRTase can be determined. […] The reaction buffer contains 50 mM Tris (pH 7.5), 0.4 mM PRPP, various concentrations of NM (or NA), 2.5 mM ATP, 12 mM MgCl2, 1.5% ethanol, 10 mM semicarbazide (to remove the acetaldehyde product of ethanol oxidation), 0.02% BSA, 10 mg/ml NMNAT, 30 mg/ml ADH, and 0.5 mM NMPRTase. The reactions are carried out at room temperature."}}}
{"smiles": "O=C(/C=C/c1cccnc1)NCCCCC1CCN(C(=O)c2ccccc2)CC1", "note": "[FK866, (E)-N-[4-(1-benzoylpiperidin-4-yl)butyl]-3-(pyridin-3-yl)acrylamide]", "values": [{"measurement": "toxicity to normal cells", "setting": "normal cells", "value": "little toxicity"}, {"measurement": "apoptosis", "setting": "tumor cells", "value": "induces apoptosis"}, {"measurement": "intracellular NAD+ levels", "setting": "tumor cells", "value": "depletion of intracellular NAD^+ levels"}, {"measurement": "anti-angiogenic effects", "setting": "renal cell carcinoma", "value": "potent anti-angiogenic effects"}, {"measurement": "inhibition of NAPRTases", "setting": "NAPRTases", "value": "does not inhibit"}, {"measurement": "relationship between FK866 concentration and Vmax", "setting": "NMPRTase", "value": "linear relationship"}]}
